According to US20110200531A1, “TREATMENT AND DIAGNOSIS OF CENTRAL NERVOUS SYSTEM DISORDERS” (THE REGENTS OF THE UNIVERSITY OF CALIFORNIA, priority 2009, published 2011):
“Also recorded” adds a separate entry of the source.

What was measured:
[1] = test system: 5×FAD mouse brains; test: Abeta immunoreactivity (6E10) in 5×FAD mouse brains; type: in vivo, mice; conditions: chow containing 300 mg/Kg from postnatal day 61 for 4 months
Source text: Animal tissues were perfused with 1×PBS followed by overnight fixation in 4% paraformaldehyde in cold room. Vibrotome sections (˜50 μm thick) were immunostained with 6E10 antibody, which recognizes all forms of Abeta, and visualized by fluorescence microscopy.

[2] = test system: cells under stress; test: Production of peroxides in cells under stress; type: cell-based
[3] = test system: 3×Tg-AD mice; test: Learning and memory in 3×Tg AD mice (novel object recognition, Morris water maze); type: in vivo; conditions: 16-month old 3×Tg-AD females
Method: Both 16-month old 3×Tg-AD and background-matched wild type (WT) mice (females) were fed with TMPcontaining or nutrients matched control for 60 days as described in FIG. 3. (A) On day 61, all the mice were tested for object recognition as previously described. Briefly, mice (n=14 for each group) were habituated to a 60×30 cm container for 5 min. Two identical objects were placed in the bottom of the cage as mirror images of each other. The animal was trained for 5 min followed by a 5 min retention interval in the home cage. Then one of the objects in the test container was replaced with a novel object. During the 3-min probe trial, the mouse was placed in the cage and time spent investigating both objects was measured. A recognition index (R1) score is depicted as: (TimeN (in seconds for novel object)/TimeTotal (in seconds for both old and novel objects))×100. (B-D) Starting on day 62, all the mice were trained for 9 days on the Morris water maze (MWM) exactly as described for the behavior testing. […] (C) MWMprobe trial for number of platform location crosses, and (D) MWM probe trial for time spent in the target quadrant. As shown by the p values, (*) indicates significant improvement by TMP treatments with respect to the corresponding controls.
FIG. 21A-D: Improvement of learning and memory in aged 3×Tg AD mice by TMP treatment. Novel object recognition task was performed. A recognition index (R1) score is depicted as: [TimeN (in seconds for novel object)/TimeTotal (in seconds for both old and novel objects)]×100. B-D Starting on day 62, all the mice were trained for 9 days on the Morris water maze (MWM) for the behavior testing. […] (C) MWM probe trial for number of platform location crosses, and (D) MWM probe trial for time spent in the target quadrant. As shown by the p values, (*) indicates significant improvement by the compound treatments with respect to the corresponding controls.
TMP improves pathology in brains of 3×Tg-AD mice and results in increased memory and learning (See FIGS. 3, 4, and 10). In these mice, the earliest pathological hallmark is the accumulation of intraneuronal Aβ in the hippocampus, cortex and amygdala in 4 month old 3×Tg-AD homozygous mice. […] Between 4-6 months of age 3×Tg-AD homozygous mice develop diffuse amyloid plaques in the neocortex. At 6 months the retention deficits are associated with significant impairments in spatial learning of the Morris Water Maze task. […] Brain and retina pathology was evaluated by immunohistochemistry with specific antibodies and learning and memory performance were scored using the Novel Object Recognition Task and using Morris Water Maze trials.
The ability of TMP-N to improve learning and memory in 3×Tg AD mice was assessed using novel object recognition task. […]

[4] = test system: Primary neurons treated with Aβ1-42; test: Neuronal survival in primary neuronal cultures treated with pre-aggregated Aβ1-42; type: cell-based, C57BL mice; conditions: 50 μM TMP with pre-aggregated Aβ1-42
Method: Primary neurons prepared from postnatal 1 day C57BL mice were treated with pre-aggregated Aβ1-42 combined with either 50 μM TMP or equal volume of vehicle at day 5 after plating. […] Nuclei were counterstained as blue by Hoechst 33342 (Hoec). Scale bar=100 μm in b & e; 80 μm a, d, f; 60 μm in c; and 40 μm in B.

[5] = test system: retinas of 3×Tg-AD mice; test: Retinal pathology in 3×Tg-AD mice; type: in vivo
[6] = test system: 3×Tg-AD mouse brain; test: Brain pathology in 3×Tg-AD mice fed TMP-containing diet; type: in vivo
Method: (A) 16-month old triple-transgenic mice (3×Tg-AD, females) were fed with TMP containing (300 mg TMP/Kg diet) or nutrients-matched control diet made by BioSery (Frenchtown, N.J.) for 70 days. […] Animals were euthanized and perfused with PBS following behavioral analyses. Half the brain was fixed with 4% paraformaldehyde (PFA) in 1×PBS and sectioned using a microtome at 40 μm, while the other half-brain was dissected and rapidly frozen for biochemical analyses. […] The boxed areas in (a) is shown in (b) at higher magnification. […] The boxed areas in a & c are shown in b & d at higher magnification. Nuclei were stained as red by propidium iodide (PI). Scale bar=400 μm in A.a&c; 100 μm in B.a&c; 80 μm A.d&e, B.d; and 60 μm in A.b, B.b. (C) Glutathione (GSH) contents in the mouse brains were measured in the cortical lysates prepared from the 3×Tg AD mouse brains following TMP treatments or control using a Biovison Glutathione colorimetric detection kit. Lysates from age-matched untreated wild type mouse brains were used as controls (WT).
In these mice, the earliest pathological hallmark is the accumulation of intraneuronal Aβ in the hippocampus, cortex and amygdala in 4 month old 3×Tg-AD homozygous mice. […] Between 4-6 months of age 3×Tg-AD homozygous mice develop diffuse amyloid plaques in the neocortex. At 6 months the retention deficits are associated with significant impairments in spatial learning of the Morris Water Maze task. 16 Month old triple-transgenic female mice (3×Tg-AD) were fed TMP-containing (300 mg TMP/kg diet) or nutrients-matched control diet made by Biosery for 70 days. Brain and retina pathology was evaluated by immunohistochemistry with specific antibodies and learning and memory performance were scored using the Novel Object Recognition Task and using Morris Water Maze trials.

[7] = test system: rat brains following kainate-induced seizures; test: Neuronal degeneration in rat brains following kainate-induced seizures (H&E, TUNEL); type: in vivo, Sprague-Dawley rats; conditions: KA 10.5 mg/Kg s.c., TMP 50 mg/Kg s.c. 1 hr after onset of seizures
Method: One month-old Sprague-Dawley rats were subcutaneously (s.c.) administrated kainite (KA) (10.5 mg/Kg). 1 hr after the onset of seizures animals were given TMP (50 mg/Kg, s.c.) or equal volume of vehicle. All the animals were sacrificed 24 hr after TMP or vehicle injection under deep anesthesia. […] Scale bar=100 μm in b, d, e, g, i, j, 1, n and o; and 400 μm in a, c, f, h, k and m.

[8] = test system: Thy1.2 promoter; test: Luciferase-mediated Thy1.2 activity reporter in N2A cells; type: cell-based, mouse; conditions: TMP 50 μM, 24 hr

## Cc1nc(C)c(C)nc1C [TMP, tetramethylpyrazine]
[1]
  Abeta immunoreactivity / deposits in brain (6E10): reduction Abeta immunoreactivity
[2]
  production of peroxides: inhibits the production of peroxides
[3]; TMP diet 60 days, trained 9 days from day 62
  Morris water maze (MWM) acquisition performance: significantly improved the performance of 3×Tg-AD mice
[3]; TMP-containing diet
  learning and memory (object recognition, MWM probe trials): significant improvements in learning and memory; also recorded: improves learning and memory
[4]
  mitochondrial depolarization (TMRM staining): very few cells
[4]; 24 hr
  neuronal survival / morphological changes showing neuronal degeneration (DIC microscopy): promotes neuronal survival; also recorded: not in these cells in the presence of TMP
[5]
  Astrocytic activation in the retinas: inhibited
  Aβ plaques in the retinas: significantly reduces the number if Aβ plaques
  fibril and oligomer conformations of Aβ: reduces both fibril and oligomer conformations of Aβ
  retinal pathologies associated with disease: beneficial effects
[6]; 300 mg TMP/Kg diet, 70 days
  GFAP staining (astrocyte activation, astrogliosis) in brain: dramatically reduced Aβ accumulation and senile plaques as well as astrogliosis; also recorded: reduced intensity of GFAP staining
[6]; 300 mg TMP/Kg diet, 70 days, colorimetric kit
  Glutathione (GSH) contents in cortical lysates: significantly increase GSH contents
[6]; 300 mg TMP/Kg diet, about 40~50 mg/Kg daily per os, 70 days
  adverse effects on the health of animals: no adverse effects on the health of animals have been observed
[6]; 3×Tg AD mouse brains
  BACE-related APP cleavage and Aβ accumulation in brains: reduces BACE-related APP cleavage and Aβ accumulation
[6]; 16-month old females, 300 mg TMP/Kg diet, about 40~50 mg/Kg daily per os, 70 days, 50 mg/kg
  Aβ staining / Aβ accumulation and senile plaques in brain (immunohistochemistry): dramatically reduced Aβ accumulation and senile plaques; also recorded: markedly reduced levels of Aβ staining
[7]; 24 hr
  Quantification of TUNEL-positive cells in the hippocampal regions: significant less number of damaged neurons
[7]; sacrificed 24 hr after
  neuronal damage/degeneration by H&E and TUNEL staining, hippocampal and piriform cortex regions: attenuates neuronal degeneration; also recorded: only exhibited a few sporadic pink (1) and TUNEL-positive cells
[8]
  Thy1.2 activity (luciferase-positive cells relative to all transfected cells): no influence of TMP on Thy1.2 activity
